Positions count from the first letter of the chain named. Like-named read-outs stand apart in the source and are kept apart here.

Assay [1] has as its target T1, OCT1 Phe244Ala variant (Homo sapiens, UniProt O15245, F244A).
T1 sequence (O15245 1-554 F244A): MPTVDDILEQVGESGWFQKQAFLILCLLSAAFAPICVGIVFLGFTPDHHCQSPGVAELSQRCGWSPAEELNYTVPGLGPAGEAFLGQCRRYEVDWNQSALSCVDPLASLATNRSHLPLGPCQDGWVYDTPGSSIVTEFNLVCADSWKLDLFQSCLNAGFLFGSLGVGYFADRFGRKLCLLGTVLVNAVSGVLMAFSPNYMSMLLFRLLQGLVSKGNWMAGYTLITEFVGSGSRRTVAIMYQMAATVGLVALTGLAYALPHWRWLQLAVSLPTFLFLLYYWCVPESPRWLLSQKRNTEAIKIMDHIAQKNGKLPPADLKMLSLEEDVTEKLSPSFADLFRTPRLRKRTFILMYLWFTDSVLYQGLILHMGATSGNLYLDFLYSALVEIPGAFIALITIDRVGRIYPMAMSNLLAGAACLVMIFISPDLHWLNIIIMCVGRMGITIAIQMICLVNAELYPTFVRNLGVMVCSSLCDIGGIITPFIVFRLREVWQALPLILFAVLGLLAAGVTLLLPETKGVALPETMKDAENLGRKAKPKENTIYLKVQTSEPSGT
Kind of assay: Uptake screening (transport ratio over empty vector), HEK293 cells overexpressing OCT1 Phe244Ala variant.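 Note: stably transfected HEK293 cells, intracellular substrate quantified by HPLC-tandem mass spectrometry in cell lysates, uptake in HBSS+ buffer.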 In kind it is cell-based. More on the design: expressed in transfected cells.
Experimental: All experiments were carried out using transporter-overexpressing HEK293 cells. […] Cells were cultivated in Dulbecco’s Modified Eagle’s medium supplemented with 10% fetal calf serum, 100 U/ml penicillin, and 100 μg/ml streptomycin. Cells were passaged twice a week and kept in culture for no longer than 30 passages.
For uptake studies, 300,000 HEK293 cells were plated in each well of 24-well plates precoated with poly-D-lysine 48 prior to the experiment. On the day of the experiment, cells were washed once with prewarmed to 37 °C HBSS+ (Hank’s balanced salt solution supplemented with 10 mM Hepes, both Sigma-Aldrich). […] Uptake was stopped by adding ice-cold HBSS+ and cells were washed twice with ice-cold buffer before cell lysis was done using 80% acetonitrile containing an appropriate internal standard for eventual mass spectrometry. Relative quantification was done by comparison of transporter-overexpressing cells to empty vector–transfected controls. For uptake kinetic experiments, cells were incubated with increasing concentrations of substrate dissolved in HBSS+. Absolute quantification was done later by comparison to a standard curve in lysis buffer with known concentration.
Intracellular drug concentrations were detected and quantified by HPLC coupled to mass spectrometry. […] Substance-specific conditions were used to adjust the retention times of the analytes.
Transport ratios were determined as relative fold-increase of the uptake in transporter-overexpressing cells over empty vector–transfected control cells. For transport kinetic experiments, absolute substrate quantification was done by signal comparison to a standard curve with known concentrations. Net uptake was then determined by subtracting the uptake into empty vector–transfected cells from transporter-overexpressing cells. […] Vmax defines the maximum transport velocity, Km refers to the substrate concentration required to reach half vmax. The intrinsic clearance Clint is the ratio of vmax over Km.

The target of assay [2] is T2, OCT1 WT (Homo sapiens, UniProt O15245).
T2 sequence (O15245 1-554): T1 sequence (O15245 1-554 F244A) with A244F
The experiment in a line: Uptake screening (transport ratio over empty vector), HEK293 cells overexpressing OCT1 WT.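 Note: intracellular substrate levels quantified by HPLC–tandem mass spectrometry after uptake in HBSS+ buffer at 37 °C, stable Flp-In HEK293 lines, fold change versus empty vector–transfected cells.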 In kind it is cell-based. Also on record: expressed in transfected cells.

Setting [3] is: Phe244Ala uptake relative to OCT1 WT.
Setting [4] is: uptake ratio of OCT1 Phe244Ala-overexpressing HEK293 cells over empty vector.
Where [5] appears, read: uptake ratio of OCT1 WT-overexpressing HEK293 cells over empty vector.
Where [6] appears, read: Phe244Ala uptake relative to WT.
[7] abbreviates: uptake ratio over empty vector, HEK293 cells overexpressing OCT1 Phe244Ala.
Where [8] appears, read: uptake ratio over empty vector, HEK293 cells overexpressing OCT1 WT.

Regarding `CNC(C)Cc1ccc2c(c1)OCO2` (stereo not shown) [3,4-Methylendioxy-N-methylamphetamin], in assay [1] (setting [3]), the relative_Phe244Ala_uptake_in% was 158.013%. Besides, the Mean_transport_ratio_Phe244Ala in assay [1] (setting [4]) came out at 2.142. Further, in assay [2] (setting [5]), the Mean_transport_ratio_WT was found to be 1.723.
Turning to `COc1cc(CCN)ccc1O` [3-Methoxy-p-tyramine], the relative_Phe244Ala_uptake_in% in assay [1] (setting [3]) is on record as 27.805%. In addition, in assay [1] (setting [4]), the Mean_transport_ratio_Phe244Ala was determined as 1.829. In addition, the Mean_transport_ratio_WT in assay [2] (setting [5]) stood at 3.981.
The matching figures for `Cc1cc(O)cc(C)c1OCC(C)N` (stereo not shown) [4-Hydroxy mexiletine]: 23.363%, 1.505 and 3.163.
Turning to `COc1ccc2[nH]cc(CCN)c2c1` [5-Methoxytryptamine], in assay [1], the Mean_transport_ratio_Phe244Ala came to 1.602 and the relative_Phe244Ala_uptake_in% amounted to 22.030%. In addition, the Mean_transport_ratio_WT in assay [2] is 3.73.
As to `c1cnn(C2CCNCC2)c1` [762240-09-5], in assay [1] (setting [6]), the relative_Phe244Ala_uptake_in% amounted to 3.421%. Also, in assay [1] (setting [7]), the Mean_transport_ratio_Phe244Ala turned out to be 1.119. Besides, in assay [2] (setting [8]), the Mean_transport_ratio_WT amounted to 4.49.
The matching figures for `Cc1cc(N)c(OC(C)C)cc1C1CCNCC1` [1380575-45-0]: 149.293%, 6.442 and 4.645.
The matching figures for `O=C(O[C@H]1C[N+]2(CCCOc3ccccc3)CCC1CC2)C(O)(c1cccs1)c1cccs1` [(R)-Aclidinium]: 126.640%, 6.14 and 5.059.
In the case of `CNC[C@H](O)c1cccc(O)c1` [(R)-Phenylephrine], the relative_Phe244Ala_uptake_in% in assay [1] (setting [3]) is 36.831%. For the same molecule, the Mean_transport_ratio_Phe244Ala in assay [1] (setting [7]) stood at 3.864. Besides, the Mean_transport_ratio_WT in assay [2] (setting [8]) was found to be 8.777.
Regarding `CN(C)CCc1c[nH]c2ccc(C[C@@H]3COC(=O)N3)cc12` [(R)-Zolmitriptan], in assay [1], the Mean_transport_ratio_Phe244Ala is recorded as 13.515 and the relative_Phe244Ala_uptake_in% was 37.478%. In addition, the Mean_transport_ratio_WT in assay [2] is given as 34.392.
The matching figures for `CC[C@@H](CO)NCCN[C@@H](CC)CO` [(R,R)-Ethambutol]: 16.298, 60.253% and 26.39.
The matching figures for `CC[C@H](CO)NCCN[C@@H](CC)CO` [(R,S)-Ethambutol]: 12.934, 72.992% and 17.35.
In the case of `O=C(OC1C[N+]2(CCCOc3ccccc3)CCC1CC2)C(O)(c1cccs1)c1cccs1` [(S)-Aclidinium], in assay [1] (setting [6]), the relative_Phe244Ala_uptake_in% is recorded as 205.468%. For the same molecule, the Mean_transport_ratio_Phe244Ala in assay [1] (setting [7]) was 8.181. Besides, the Mean_transport_ratio_WT in assay [2] (setting [8]) turned out to be 4.495.
In the case of `CCN[C@@H](C)Cc1cccc(C(F)(F)F)c1` [(S)-Fenfluramine], in assay [1], the Mean_transport_ratio_Phe244Ala is 1.119 and the relative_Phe244Ala_uptake_in% is on record as 183.841%. Moreover, the Mean_transport_ratio_WT in assay [2] amounted to 1.065.
For `CN(C)CCc1c[nH]c2ccc(C[C@H]3COC(=O)N3)cc12` [(S)-Zolmitriptan] the same measures were 8.091, 24.350% and 30.121.
Regarding `CC[C@@H](CO)NCCN[C@@H](CC)CO` [(S,S)-Ethambutol], in assay [1], the Mean_transport_ratio_Phe244Ala amounted to 11.185 and the relative_Phe244Ala_uptake_in% amounted to 49.465%. In addition, the Mean_transport_ratio_WT in assay [2] is given as 21.59.
Consider `CN(C)c1ccc(/C=C/c2cc[n+](C)cc2)cc1` [ASP^+, 4-(4-(dimethylamino)styryl)-N-methylpyridinium], for which the relative_Phe244Ala_uptake_in% in assay [1] (setting [6]) is reported as 62.977%. Moreover, in assay [1] (setting [7]), the Mean_transport_ratio_Phe244Ala worked out at 8.237. Besides, the Mean_transport_ratio_WT in assay [2] (setting [8]) was 12.491.
As for `Cc1cccc(C)c1OCC(C)N` (stereo not shown) [Mexiletine], in assay [1] (setting [3]), the relative_Phe244Ala_uptake_in% is recorded as 53.635%.

The record behind these values is publication PMC11602988 (The Journal of Biological Chemistry, 2024).
